Experimental findings from patent US20230010958A1, “CANNABINOID AND LYCOPENE ANTI-INFLAMMATORY SYNERGISTIC COMBINATIONS” (LYCORED LTD., priority 2019, published 2023) are described below.

Data set [1] relates to nitric oxide (NO). The data set can be described thus: NO production in bone marrow derived macrophages treated with an inflammatory stimulus (lycopene, CBDA). The format is cell-based. As to conditions: CBDA alone, 2.5 µM, 5 µM, 10 µM (FIG. 8A). On the procedure:
Bone marrow derived macrophages were treated with an inflammatory stimulus in the presence of various concentration of lycopene, cannabidiolic acid (CBDA), tomato extract and hemp extract in vitro. As an inflammatory outcome, nitric oxide (NO) was monitored.
Full Study with test material and benchmarks - Cells were treated with tomato and hemp extract for 24 hours to determine viability. Cells were then treated as follows; (1) medium alone (unstimulated control), (2) LPS stimulation- 10 µg/mL, (3) each crude extracts (Tomato/Hemp) at concentration of IC50, (4) LPS + crude extracts, (5) control inhibitor, and (6) LPS + control inhibitor. The tomato and hemp extract and benchmarks (lycopene, CBDA) were tested in 5 different rations; 1:10, 1:5, 1:1, 5:1, 10:1.
Nitric oxide production was determined for each treatment.

The test system of data set [2] is nitric oxide (NO) production. The data set can be described thus: NO production assay in LPS-stimulated peritoneal macrophages (Griess reagent). The format is cell-based, mice. Particulars: CBD alone, 0.05 µM to 50 µM (FIG. 1). How it is done:
Macrophage isolation and cell culture - Peritoneal macrophages were collected from the peritoneal cavity of 6-8-week-old male ICR mice (Harlan, Israel) given an intraperitoneal injection of 1.5 ml of thioglycollate broth (4%) 4 days before harvest. Peritoneal macrophages were washed three times with PBS and if needed a hypotonic lysis of erythrocytes was performed, yielding 90-95% purity. The macrophages were identified by fluorescence-activated cell sorting (FACS) analysis using FITC-conjugated rat antimouse F4/80 (MCA497F; Serotec, Oxford, England) by flow microfluorimetry on FACS (Becton Dickinson, Mountain View, CA). For each sample, 10,000 light scatter-gated viable cells were analyzed. […]
To the control groups, appropriate volumes of DMSO (0.1-0.2%) were added. The percent inhibition of each experimental group was calculated comparatively to the relevant and corresponding control.
NO production assay —NO levels in supernatants of cell cultures were determined by assaying nitrite levels using Griess reagent and sodium nitrite as a standard.
Peritoneal macrophages were incubated with the compounds 1 h before addition of LPS and cultured overnight. NO production was determined in the supernatant of the cultures and the % of inhibition from untreated macrophages was determined. […]

For data set [3], the system named is Macrophages. Description: MTT cell viability assay with CBD. The format is cell-based. As to conditions: increasing CBD concentrations (FIG. 2). On the procedure: FIG. 2 includes a vertical bar graph showing the effect of CBD on cell viability. MTT assay was performed in the presence of increasing CBD concentrations.
The inventors initially examined the sole effect of cannabidiol (CBD) on nitric oxide (NO) production. Macrophages were stimulated, and NO production was examined in the presence of increasing CBD concentrations, ranging from 0.05 µM to 50 µM.

In the case of `C=C(C)[C@@H]1CCC(C)=C[C@H]1c1c(O)cc(CCCCC)c(C(=O)O)c1O` [CBDA, cannabidiolic acid], the “inhibition of NO production” value in data set [1] is reported as “inhibits NO production in a dose dependent manner”. As to `C=C(C)[C@@H]1CCC(C)=C[C@H]1c1c(O)cc(CCCCC)cc1O` [CBD, 2-[(6R)-3-Methyl-6-prop-l-en-2-yl-lcyclohex-2-envyl]-5pentylbenzene-l,3-diol], the “% of NO production inhibition” value in data set [2] was “increased in a CBD dose-dependent manner”. Besides, the “CBD concentration toxic to the cells (cell viability, MTT)” value in data set [3] is not below 25 µM.
